The results in this text go back to BindingDB's records for doi:10.1021/jm00075a026 (Solvay Duphar, 1994).

A value given as a limit tells only on which side of the number the result lay.

The test concerns the target T1, Glycine receptor subunit alpha-4 (Mus musculus, UniProt Q61603).
T1 sequence (Q61603 whole entry): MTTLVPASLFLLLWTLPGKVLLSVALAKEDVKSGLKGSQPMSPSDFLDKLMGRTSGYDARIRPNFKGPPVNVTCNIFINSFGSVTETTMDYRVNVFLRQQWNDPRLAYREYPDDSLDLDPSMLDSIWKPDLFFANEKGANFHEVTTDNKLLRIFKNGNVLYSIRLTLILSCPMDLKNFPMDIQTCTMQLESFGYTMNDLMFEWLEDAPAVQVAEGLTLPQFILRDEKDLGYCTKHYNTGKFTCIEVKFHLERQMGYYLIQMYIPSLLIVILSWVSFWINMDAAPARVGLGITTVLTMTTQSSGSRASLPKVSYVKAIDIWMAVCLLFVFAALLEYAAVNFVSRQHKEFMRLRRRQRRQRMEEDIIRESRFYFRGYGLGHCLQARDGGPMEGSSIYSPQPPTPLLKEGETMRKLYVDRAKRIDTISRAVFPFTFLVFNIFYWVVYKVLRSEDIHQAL
As to the kind of experiment: ChEBML_219281. Here is the method:
The binding affinity was measured on glycine receptor using [3H]- strychnine as radioligand.

As to `Cc1nccn1CC1CCc2c(c3ccccc3n2C)C1=O` (stereo unspecified) [NSC_68647], the inhibitory constant (Ki) is over 10 µM.
